Reference: patent US12599620B2, “Method for the treatment of chronic fatigue syndrome using an inhibitory or cytotoxic agent against plasma cells” (Vestlandets Innovasjonsselskap AS, priority 2019, dated 2026)

Key:
[1] = test system: patients with N-Methyl-D-Aspartate (NMDA) receptor antibody-mediated encephalitis; details: refractory to first and second line therapy; cited from earlier work
lupus nephritis in mice = details: Bortezomib plus B-cell depletion; cited from earlier work
ME/CFS patients [2] = experiment: Bortezomib treatment of ME/CFS patients (case reports Patient 1, Patient 2); format: in vivo, human; details: for clinical effect on ME/CFS symptoms: PEM, pain
Experimental: They received Bortezomib subcutaneously says 1, 4, 11 and 15. […] They therefore received the third course of Bortezomib as an intravenous infusion with the same dose 1.3 mg/m^2, given at days 1, 4, 8 and 11.
They had increasing energy, increased exertion and was able to perform many new tasks. […] The self-reported symptom improvement was supported by measured steps per 24 hours (Fitbit armband) and in the response period we registered more than 10.000 steps per day.
The effect lasted for approximately 7 weeks before they started experiencing gradual relapse of the ME/CFS symptoms.
[…] Fitbit armband verified […] description of improvement, with increasing steps per 24 hours from mean 1500-2000 before intervention to approximately 4000, up to 7000 on single days, after response.

ME/CFS patients [3] = details: Patient 2; open-label trial, cyclophosphamide intravenous infusions
ME/CFS patients [4] = details: cited from earlier work; for effect on ME/CFS symptoms: patients with longstanding ME/CFS given the drug for an acquired cancer

For `CC(C)C[C@H](NC(=O)[C@H](Cc1ccccc1)NC(=O)c1cnccn1)B(O)O` [Bortezomib], the clinical outcome [1] is given as “clinical improvement and reduction of pathologic autoantibodies”, the outcome (lupus nephritis in mice) is given as “sustained plasma cell depletion and amelioration of lupus nephritis” and the “duration of effect before gradual relapse” value (ME/CFS patients [2]; Patient 1) is given as “approximately 7 weeks”. For the same compound, the “measured steps per 24 hours (Fitbit armband) in the response period” value (ME/CFS patients [2]; Patient 1) was “more than 10.000 steps per day”, the “clinical effect on ME/CFS symptoms” value (ME/CFS patients [2]; Patient 1, cognitive disturbances, sleep problems) was “gradual improvement of all their ME/CFS symptoms” and the side effects (ME/CFS patients [2]; Patient 1, first course 1.0 mg/m^2 subcutaneously) was “no bortezomib-associated side effects except an exanthema around the injection site”. For the same compound, the side effects (ME/CFS patients [2]; Patient 1, second course 1.3 mg/m^2 subcutaneously) was “increasing local reaction at the injection site and with some transient fatigue and pain in the muscles”, the side effects (ME/CFS patients [2]; Patient 1, third course 1.3 mg/m^2 intravenous infusion) was “transient exanthema along the vein on the arm” and the “start of gradual improvement of ME/CFS symptoms, from start of bortezomib treatment” value (ME/CFS patients [2]; Patient 1, three courses Bortezomib 1.0-1.3 mg/m^2 sc/iv) was 10 week. For the same compound, the “response lasting until time after the last Bortezomib infusion” value (ME/CFS patients [2]; Patient 2) was 6 weeks, the “steps per 24 hours on single days after response” value (ME/CFS patients [2]; Patient 2) was “up to 7000 steps per 24 hours” and the side effects (ME/CFS patients [2]; Patient 2, after the last (sixth) course) was “discomfort in their lower extremities at the legs and feet, and some constipation”. The “start of improvement of ME/CFS symptoms, after start of Bortezomib intervention” value (ME/CFS patients [2]; Patient 2, courses 1.0 then 1.3 mg/m^2) was 7 weeks, the “clinical effect on ME/CFS symptoms” value (ME/CFS patients [2]; Patient 2, energy, dizziness, cognitive function) was “gradual and consistent improvement of all their ME/CS symptoms” and the side effects (ME/CFS patients [2]; Patient 2, first course 1.0 mg/m^2 subcutaneously) was “minimal skin reaction at the injection site and no other side effects”. The “total duration of response before gradual relapse” value (ME/CFS patients [2]; Patient 2, in total 6 courses) was 16 weeks and the “steps per 24 hours (Fitbit armband) after response” value (ME/CFS patients [2]; Patient 2, mean 1500-2000 before intervention) was “approximately 4000 steps per 24 hours”.
In the case of `O=P1(N(CCCl)CCCl)NCCCO1` (stereo not drawn) [Cyclophosphamide], the “duration of clinical response before gradual relapse” value (ME/CFS patients [3]) is given as “almost a year”, the “effect on ME/CFS symptoms” value (ME/CFS patients [4]) is given as “significant symptomatic improvement” and the “share of patients with significant clinical improvements of long duration” value (ME/CFS patients [4]; phase II trial, 6 courses of Cyclophosphamide) is given as “more than half the patients”.
For `O=P1(NCCCl)OCCCN1CCCl` (stereo not drawn) [Ifosfamide], the “effect on ME/CFS symptoms” value (ME/CFS patients [4]) is given as “significant symptomatic improvement”.
